# Where two headings read alike, the source gives them in different places.
# How the values were obtained:
# [1] = in vivo; details: male, CD-1, mouse, ip; for AUC: AUC (h * ng/ml)
# Procedure: Drug Preparation and Administration.
# Blood and tissue Sample Collection.
# Plasma Sample Extraction. Plasma samples were prepared by protein precipitation. An internal standard was added into plasma samples. […] The supernatant was then injected onto LC/MS/MS.
# Samples were compared to standards made in plasma. These standards were prepared by serial dilution.
# Tissue Sample Extraction. […] Tissues were homogenized in 0.8 ml water. An internal standard was added into the tissue homogenates.
# LC/MS/MS Analytical Methods.
# LC Conditions are shown below:
# [2] = biological target: Abl Kinase (Homo sapiens, UniProt P00519); test: Kinase panel (TABLE F), Abl Kinase; assay type: biochemical
# Chain of Abl Kinase (P00519 whole entry): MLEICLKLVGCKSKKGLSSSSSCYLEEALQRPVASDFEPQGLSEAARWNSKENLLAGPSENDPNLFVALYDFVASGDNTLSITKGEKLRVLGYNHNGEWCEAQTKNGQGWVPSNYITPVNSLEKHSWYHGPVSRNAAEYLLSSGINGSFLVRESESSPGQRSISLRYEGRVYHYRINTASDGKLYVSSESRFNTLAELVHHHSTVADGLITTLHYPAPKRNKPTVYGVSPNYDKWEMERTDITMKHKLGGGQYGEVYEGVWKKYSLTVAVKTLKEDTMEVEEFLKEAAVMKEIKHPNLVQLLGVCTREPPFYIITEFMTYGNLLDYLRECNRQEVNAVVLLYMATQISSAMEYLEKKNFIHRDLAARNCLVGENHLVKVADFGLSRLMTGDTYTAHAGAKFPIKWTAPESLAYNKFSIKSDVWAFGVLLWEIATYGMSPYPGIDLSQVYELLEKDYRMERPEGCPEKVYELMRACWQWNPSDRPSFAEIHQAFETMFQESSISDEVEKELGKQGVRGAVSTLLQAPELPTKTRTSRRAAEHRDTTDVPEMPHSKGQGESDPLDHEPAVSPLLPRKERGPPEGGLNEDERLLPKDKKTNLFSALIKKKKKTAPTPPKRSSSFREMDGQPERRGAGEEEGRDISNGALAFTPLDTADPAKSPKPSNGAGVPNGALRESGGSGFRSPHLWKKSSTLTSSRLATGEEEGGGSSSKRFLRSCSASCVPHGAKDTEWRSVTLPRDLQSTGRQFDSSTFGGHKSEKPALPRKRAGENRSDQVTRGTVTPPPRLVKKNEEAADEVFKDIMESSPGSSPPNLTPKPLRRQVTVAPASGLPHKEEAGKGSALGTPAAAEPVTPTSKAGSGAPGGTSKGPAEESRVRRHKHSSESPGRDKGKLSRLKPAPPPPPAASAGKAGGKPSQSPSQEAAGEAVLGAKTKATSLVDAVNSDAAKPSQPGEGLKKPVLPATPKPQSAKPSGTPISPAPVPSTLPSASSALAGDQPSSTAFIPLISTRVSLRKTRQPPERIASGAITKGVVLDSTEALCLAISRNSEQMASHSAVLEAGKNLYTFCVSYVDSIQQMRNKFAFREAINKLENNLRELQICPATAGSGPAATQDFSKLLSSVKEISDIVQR
# [3] = system: Prostate_22RV1 (22RV1, prostate carcinoma); test: Cell proliferation assay (ATPlite), 22RV1; assay type: cell-based; details: Homo sapiens
# Procedure: (§1) A representative number of compounds were assayed against several different cell lines using the cell proliferation assay:
# (§2) Cell Proliferation Assay:
# (§3) Cancer cell lines were plated at 5,000 to 10,000 per well in 96-well flatted bottomed plates with various concentration of compounds. […] Growth inhibition was accessed by adenosine triphosphate (ATP) content assay using Perkin Elmer ATPlite kit. ATPlite is an ATP monitoring system based on firefly luciferase. Briefly, 25 μl of mammalian cell lysis solution was added to 50 μl of phenol red-free culture medium per well to lyse the cells and stabilize the ATP. 25 μl of substrate solution was then added to the well and subsequently the luminescence was measured.
# [4] = biological target: VEGFR2 Kinase (Homo sapiens, UniProt P35968); test: Kinase panel (TABLE F), VEGFR2 Kinase; assay type: biochemical
# Chain of VEGFR2 Kinase (P35968 20-1356): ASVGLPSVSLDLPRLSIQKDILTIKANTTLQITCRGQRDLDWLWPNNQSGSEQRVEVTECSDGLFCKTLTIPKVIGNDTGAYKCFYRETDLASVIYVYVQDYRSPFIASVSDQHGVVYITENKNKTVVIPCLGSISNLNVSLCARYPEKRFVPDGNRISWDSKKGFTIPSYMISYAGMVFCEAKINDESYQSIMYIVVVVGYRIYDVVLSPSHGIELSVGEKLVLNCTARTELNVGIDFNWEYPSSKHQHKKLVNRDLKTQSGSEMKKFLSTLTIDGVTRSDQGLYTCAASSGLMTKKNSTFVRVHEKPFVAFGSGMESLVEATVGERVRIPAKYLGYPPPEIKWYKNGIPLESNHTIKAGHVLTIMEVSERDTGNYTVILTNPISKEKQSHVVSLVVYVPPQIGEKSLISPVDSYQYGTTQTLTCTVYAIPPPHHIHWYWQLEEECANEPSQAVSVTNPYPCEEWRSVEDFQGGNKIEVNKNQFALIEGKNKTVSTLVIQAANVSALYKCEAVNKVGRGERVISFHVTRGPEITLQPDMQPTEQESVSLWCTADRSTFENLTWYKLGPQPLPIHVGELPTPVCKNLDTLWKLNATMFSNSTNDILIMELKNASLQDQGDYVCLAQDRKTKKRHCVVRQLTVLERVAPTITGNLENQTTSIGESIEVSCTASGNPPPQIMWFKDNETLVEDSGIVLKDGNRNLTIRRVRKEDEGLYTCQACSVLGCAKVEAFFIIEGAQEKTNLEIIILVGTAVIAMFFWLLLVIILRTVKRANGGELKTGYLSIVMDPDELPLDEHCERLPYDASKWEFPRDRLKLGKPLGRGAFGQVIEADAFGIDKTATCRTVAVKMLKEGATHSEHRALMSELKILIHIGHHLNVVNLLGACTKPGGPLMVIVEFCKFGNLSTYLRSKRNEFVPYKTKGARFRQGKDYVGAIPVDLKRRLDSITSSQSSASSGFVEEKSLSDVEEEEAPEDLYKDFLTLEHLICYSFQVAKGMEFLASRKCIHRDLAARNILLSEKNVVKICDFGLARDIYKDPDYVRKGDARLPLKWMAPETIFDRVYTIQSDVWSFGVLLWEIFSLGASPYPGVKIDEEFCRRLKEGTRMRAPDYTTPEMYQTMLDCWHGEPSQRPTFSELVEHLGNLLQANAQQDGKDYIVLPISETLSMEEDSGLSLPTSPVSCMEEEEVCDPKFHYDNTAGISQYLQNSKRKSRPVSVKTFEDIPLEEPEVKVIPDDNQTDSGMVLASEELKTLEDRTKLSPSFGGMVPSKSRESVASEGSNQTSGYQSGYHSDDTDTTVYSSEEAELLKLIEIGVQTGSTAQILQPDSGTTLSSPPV
# [5] = biological target: Lck Kinase (Homo sapiens, UniProt P06239); test: Kinase panel (TABLE F), Lck Kinase; assay type: biochemical
# Chain of Lck Kinase (P06239 whole entry): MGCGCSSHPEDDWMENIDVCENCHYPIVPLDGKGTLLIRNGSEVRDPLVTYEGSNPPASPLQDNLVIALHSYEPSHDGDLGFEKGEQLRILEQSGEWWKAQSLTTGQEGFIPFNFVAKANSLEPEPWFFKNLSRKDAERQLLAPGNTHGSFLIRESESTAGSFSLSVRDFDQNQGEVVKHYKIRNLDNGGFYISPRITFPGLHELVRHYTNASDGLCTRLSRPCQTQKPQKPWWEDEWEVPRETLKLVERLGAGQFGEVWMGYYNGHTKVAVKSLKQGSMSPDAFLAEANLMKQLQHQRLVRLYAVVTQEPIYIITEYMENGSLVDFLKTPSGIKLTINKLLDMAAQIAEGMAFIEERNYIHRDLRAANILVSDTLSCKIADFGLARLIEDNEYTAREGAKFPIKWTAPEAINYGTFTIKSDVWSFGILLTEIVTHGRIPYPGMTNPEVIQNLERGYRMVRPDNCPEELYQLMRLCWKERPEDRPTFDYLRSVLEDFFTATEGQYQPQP
# [6] = system: Prostate_PC3 (PC-3, prostate adenocarcinoma); test: Cell proliferation assay (ATPlite), PC3; assay type: cell-based
# Procedure: as §1, §2, §3
# [7] = system: Lung_H1703; test: Cell proliferation assay (ATPlite), H1703; assay type: cell-based; details: Homo sapiens, NCI-H1703; TABLE C; 72 hours, 0.5% fetal bovine serum, ATP content; read-out: IC50 grading, Lung_H1703
# Procedure: as §1, §2
# (§4) Cancer cell lines were plated at 5,000 to 10,000 per well in 96-well flatted bottomed plates with various concentration of compounds. The cells were incubated with compounds for 72 hours in the presence of 0.5% of fetal bovine serum. Growth inhibition was accessed by adenosine triphosphate (ATP) content assay using Perkin Elmer ATPlite kit. ATPlite is an ATP monitoring system based on firefly luciferase. Briefly, 25 μl of mammalian cell lysis solution was added to 50 μl of phenol red-free culture medium per well to lyse the cells and stabilize the ATP. 25 μl of substrate solution was then added to the well and subsequently the luminescence was measured.
# [8] = system: Lung_H460; test: Cell proliferation assay (ATPlite), H460; assay type: cell-based; details: Homo sapiens, NCI-H460; TABLE C; 72 hours, 0.5% fetal bovine serum, ATP content; read-out: IC50 grading, Lung_H460
# Procedure: as §1, §2, §4
# [9] = system: Epidermoid_A431 (A431, epidermoid carcinoma); test: Cell proliferation assay (ATPlite), A431; assay type: cell-based; details: Homo sapiens, A-431
# Procedure: as §1, §2, §3
# [10] = biological target: Ret Kinase (Homo sapiens, UniProt P07949); test: Kinase panel (TABLE F), Ret Kinase; assay type: biochemical
# Chain of Ret Kinase (P07949 29-1114): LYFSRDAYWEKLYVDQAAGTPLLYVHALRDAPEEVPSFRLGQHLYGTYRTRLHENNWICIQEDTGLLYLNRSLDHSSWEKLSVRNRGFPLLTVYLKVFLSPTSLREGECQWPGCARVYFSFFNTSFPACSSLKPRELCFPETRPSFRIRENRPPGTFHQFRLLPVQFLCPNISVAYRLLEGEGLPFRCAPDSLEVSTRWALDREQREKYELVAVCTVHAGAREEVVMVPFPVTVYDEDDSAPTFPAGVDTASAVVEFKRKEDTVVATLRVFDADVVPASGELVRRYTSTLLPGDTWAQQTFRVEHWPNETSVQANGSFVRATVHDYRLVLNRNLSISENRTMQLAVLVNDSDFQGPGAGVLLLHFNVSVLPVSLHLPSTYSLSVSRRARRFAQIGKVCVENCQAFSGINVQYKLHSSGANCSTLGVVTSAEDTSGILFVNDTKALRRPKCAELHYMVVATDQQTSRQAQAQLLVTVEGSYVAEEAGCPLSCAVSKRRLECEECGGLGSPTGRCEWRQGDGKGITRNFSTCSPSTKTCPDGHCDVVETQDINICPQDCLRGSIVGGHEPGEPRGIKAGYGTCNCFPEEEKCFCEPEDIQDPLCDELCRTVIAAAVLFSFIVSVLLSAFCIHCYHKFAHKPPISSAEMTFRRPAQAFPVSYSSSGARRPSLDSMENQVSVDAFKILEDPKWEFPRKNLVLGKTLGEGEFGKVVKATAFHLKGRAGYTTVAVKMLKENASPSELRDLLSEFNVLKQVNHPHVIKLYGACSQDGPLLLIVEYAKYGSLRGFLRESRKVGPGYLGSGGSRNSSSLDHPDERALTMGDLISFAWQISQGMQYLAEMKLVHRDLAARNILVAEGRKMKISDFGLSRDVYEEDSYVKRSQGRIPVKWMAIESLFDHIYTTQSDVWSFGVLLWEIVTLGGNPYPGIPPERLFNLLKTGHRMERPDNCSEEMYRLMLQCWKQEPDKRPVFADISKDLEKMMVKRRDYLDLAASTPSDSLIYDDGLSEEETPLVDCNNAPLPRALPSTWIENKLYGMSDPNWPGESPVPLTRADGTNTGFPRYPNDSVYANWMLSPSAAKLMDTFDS
# [11] = both, Sprague Dawley, rat, in vivo, iv, 8 days
# Procedure: The experimental methods used for the toxicity study below are described as follows:
# 2. Single dosing MTD in rats • a. Sprague Dawley, male and female, 240-260 gram • b. Dosing at 0, 25, 50, 100, 200 mg/kg, iv infusion 5 min • c. 6 rats per group (3 male and 3 female)
# (§5) Stock solution is diluted with 30% CAPTISOL before use.
# [12] = system: Pancreas_CFPAC; test: Cell proliferation assay (ATPlite), CFPAC; assay type: cell-based; details: TABLE C; 72 hours, 0.5% fetal bovine serum, ATP content; read-out: IC50 grading, Pancreas_CFPAC
# Procedure: as §1, §2, §4
# [13] = system: Pancreas_Capan1; test: Cell proliferation assay (ATPlite), Capan1; assay type: cell-based; details: Homo sapiens, CAPAN-1; TABLE C; 72 hours, 0.5% fetal bovine serum, ATP content; read-out: IC50 grading, Pancreas_Capan1
# Procedure: as §1, §2, §4
# [14] = system: Breast_MDAMB468 (MDA-MB-468, breast adenocarcinoma); test: Cell proliferation assay (ATPlite), MDA-MB-468; assay type: cell-based; details: Homo sapiens, TABLE C, 72 hours, 0.5% fetal bovine serum, ATP content, read-out: IC50 grading, Breast_MDAMB468
# Procedure: as §1, §2, §3
# [15] = male, CD-1, mouse, in vivo, iv, 9 day
# Procedure: Single dosing MTD in mice • a. CD-1 mice, male, 24-26 gram • b. Dosing at 0, 50, 100, 200, 400 mg/kg, iv infusion 2 min • c. 8 mice per group
# as §5
# [16] = biological target: Lyn Kinase (Homo sapiens, UniProt P07948); test: Kinase panel (TABLE F), Lyn Kinase; assay type: biochemical
# Chain of Lyn Kinase (P07948 whole entry): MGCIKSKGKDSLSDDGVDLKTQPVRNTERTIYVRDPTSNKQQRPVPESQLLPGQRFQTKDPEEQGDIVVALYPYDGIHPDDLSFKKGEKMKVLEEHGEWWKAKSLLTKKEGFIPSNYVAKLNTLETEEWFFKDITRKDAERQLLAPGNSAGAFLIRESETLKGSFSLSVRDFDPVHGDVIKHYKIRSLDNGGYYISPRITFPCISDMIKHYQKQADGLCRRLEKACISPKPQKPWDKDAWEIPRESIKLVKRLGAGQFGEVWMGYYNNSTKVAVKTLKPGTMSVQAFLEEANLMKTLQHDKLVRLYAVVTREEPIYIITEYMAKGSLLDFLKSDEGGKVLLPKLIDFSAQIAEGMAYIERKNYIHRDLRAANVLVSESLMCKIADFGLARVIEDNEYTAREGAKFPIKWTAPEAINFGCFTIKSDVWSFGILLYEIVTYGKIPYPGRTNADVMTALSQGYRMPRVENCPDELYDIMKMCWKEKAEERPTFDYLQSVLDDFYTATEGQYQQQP
# [17] = system: Pancreas_PANC1; test: Cell proliferation assay (ATPlite), PANC1; assay type: cell-based; details: Homo sapiens, PANC-1; TABLE C; 72 hours, 0.5% fetal bovine serum, ATP content; read-out: IC50 grading, Pancreas_PANC1
# Procedure: as §1, §2, §4
# [18] = male, CD-1, mouse, in vivo, ip, 7 days
# Procedure: 7-day-multiple dosing MTD in mice • a. CD-1 mice, male, 24-26 gram • b. Dosing at 0, 50, 100, 200 mg/kg/d ip • c. 6 mice per group • d. Blood and organs will be collected 2 hr after last dosing on Day 7 for hematology
# as §5
# [19] = biological target: FLT-3 Kinase (Homo sapiens, UniProt P36888); test: Kinase panel (TABLE F), FLT-3 Kinase; assay type: biochemical
# [20] = system: Lung_H292; test: Cell proliferation assay (ATPlite), H292; assay type: cell-based; details: Homo sapiens, NCI-H292; TABLE C; 72 hours, 0.5% fetal bovine serum, ATP content; read-out: IC50 grading, Lung_H292
# Procedure: as §1, §2, §4
# [21] = system: Breast_SkBr3 (SKBr3, breast carcinoma); test: Cell proliferation assay (ATPlite), SkBr3; assay type: cell-based; details: Homo sapiens, SK-BR-3
# Procedure: as §1, §2, §3
# [22] = system: Pancreas_MiaPaCa2; test: Cell proliferation assay (ATPlite), MiaPaCa2; assay type: cell-based; details: Homo sapiens, MIA PaCa-2; TABLE C; 72 hours, 0.5% fetal bovine serum, ATP content; read-out: IC50 grading, Pancreas_MiaPaCa2
# Procedure: as §1, §2, §4
compound,measurement,setting,value
C#Cc1cccc(Nc2ncnc3cc(OC)c(OCCCCCCC(=O)NO)cc23)c1 [Compound 12],AUC,[1]; 20 mg/kg,3750 ng·h/mL
same,AUC,[1]; 60 mg/kg,5720 ng·h/mL
same,Cmax,"[1]; 60 mg/kg, Cmax (uM)",14.4 µM
same,inhibition at 5 µM,[2],57%
same,IC50,"[3]; TABLE C, 72 hours, 0.5% fetal bovine serum, ATP content, read-out: IC50 grading, Prostate_22RV1",0.1 to 1 µM
same,IC50,"[3]; TABLE D, Prostate carcinoma, read-out: IC50 grading, 22RV1",0.05 to 0.5 µM
same,inhibition at 5 µM,[4],64%
same,inhibition at 5 µM,[5],56%
same,IC50,"[6]; TABLE C, 72 hours, 0.5% fetal bovine serum, ATP content, read-out: IC50 grading, Prostate_PC3",0.1 to 1 µM
same,IC50,"[6]; TABLE D, Prostate adenocarcinoma, read-out: IC50 grading, PC-3",0.5 to 5 µM
same,IC50,[7],0.1 to 1 µM
same,IC50,[8],0.1 to 1 µM
same,IC50,"[9]; TABLE C, 72 hours, 0.5% fetal bovine serum, ATP content, read-out: IC50 grading, Epidermoid_A431",0.1 to 1 µM
same,IC50,"[9]; TABLE D, Epidermoid carcinoma, read-out: IC50 grading, A431",0.05 to 0.5 µM
same,inhibition at 5 µM,[10],93%
same,dose without significant change in body weight,[11],up to 200 mg/kg
same,IC50,[12],0.1 to 1 µM
same,IC50,[13],0.1 to 1 µM
same,IC50,[14],< 0.1 µM
same,dose without significant change in body weight,[15],up to 200 mg/kg
same,inhibition at 5 µM,[16],95%
same,IC50,[17],0.1 to 1 µM
same,dose without significant change in body weight,[18],up to 100 mg/kg
same,inhibition at 5 µM,[19],85%
same,IC50,[20],< 0.1 µM
same,IC50,"[21]; TABLE C, 72 hours, 0.5% fetal bovine serum, ATP content, read-out: IC50 grading, Breast_SkBr3",0.1 to 1 µM
same,IC50,"[21]; TABLE D, Breast carcinoma, read-out: IC50 grading, SKBr3",0.05 to 0.5 µM
same,IC50,[22],0.1 to 1 µM
